Key:
[1] = target: activated p38α enzyme (Homo sapiens, UniProt Q16539); assay: p38 Biochemical Assay; set-up: key: An “active” compound is defined as a compound having an IC50 below 500 nM; settings: 5 nM activated p38α, 1 uM ATF-2 substrate, 10 μM ATP
Method: P38 activity was assayed at room temperature in a 100 μl reaction containing 5 nM activated p38α enzyme and 1 uM ATF-2 (Activating Transcription Factor 2 fusion protein) as the substrate in 25 mM HEPES (pH 7.4), 100 μM Vanadate, 1 mM DTT, 10 mM MgCl2 and 10 μM [[…]-^33P]-ATP (˜0.1 μCi P^33/reaction). The reaction was terminated after 30-40 minutes by adding 25% TCA, let stand for 5 minutes and then transferred directly to a GF-B membrane filter plate. The filter was washed twice for 30 seconds with 0.5% phosphoric acid using a Tomtec Mach III Automated Harvestor. After washing, the vacuum was continued for 30 seconds to dry the filter. Approximately 30 μl of scintillant was added per well to the filter plate and then read in a Liquid Scintillation Counter (Packard TopCount HTS).

[2] = system: LPS-induced TNF-α secretion from human peripheral blood mononuclear cells (PBMC); assay: PBMC Assay: inhibition of LPS-induced TNF-α secretion; type: cell-based; set-up: key: An “active” compound is defined as a compound having an IC50 below 500 nM; settings: LPS-stimulated human PBMC, TNF-α ELISA
Method: The ability of compounds of this invention to inhibit TNF-α production was assessed by using human peripheral blood mononuclear cells (“PBMC”) which synthesize and secrete TNF-α when stimulated with lipopolysaccharide.
Compound test solutions were made by making 5 fold serial dilutions in DMSO, which dilutions were then diluted to 5× stocks by diluting with MEM, 2% heat inactivated fetal bovine serum (“FBS”), 20 mM HEPES, 2 mM L-glutamine, and 1% penicillin/streptomycin.
PBMC's were isolated from human blood as follows. Whole blood samples were collected from human volunteers into Vacutainer™ CPT from Becton Dickinson. Tubes were mixed and centrifuged at room temperature (18-25° C.) in a horizontal rotor for a minimum of 15 minutes at 1500-1800 RCF (relative centrifugal force). For each donor, the buffy coat layers were pooled into a single tube and washed twice with phosphate buffered saline (“PBS”). The cell pellet was resuspended in MEM, 2% heat inactivated fetal bovine serum (“FBS”), 20 mM HEPES, 2 mM L-glutamine, and 1% penicillin/streptomycin. Total cell number was determined using a hemocytometer and the cell suspension was adjusted to 2×10^6 cells/mL.
0.1 mL of cell suspension was added to each well of a 96-well cell culture plate. 30 μL of a compound test solution was added, and the cells were incubated in a 37° C./5% CO2 incubator for 1 hour. 20 μL of 7.5 ng/mL lipopolysaccharide (LPS E. Coli K-235) was then added to each well, and the cells were returned to the 37° C./5% CO2 incubator for 16-20 hours. The cells were centrifuged for 15 minutes at 1100 RCF. Approximately 0.12 mL of the supernatant was transferred into a clean 96 well polypropylene plate. The samples were either assayed immediately or were stored at −80° C. until ready for assay. TNF-α levels were determined in each sample using a human TNF-α ELISA assay such as that described below.
TNF-α levels were determined using the following assay. TNF-alpha antibody coated plates were prepared by adding 150 μL of 2 μg/mL anti-TNF-α purified mouse monoclonal IgG in Carbonate-Bicarbonate buffer (BupH™ Carbonate-Bicarbonate Buffer Pack) to wells of a 96-well Immulon 4 plate (Immulon 4 ELISA Flat Bottom Plate; Dynex, catalog number 011-010-3855) and incubated overnight at 2-8° C. Coating solution was removed and 200 μL of “blocking buffer” (20 mM HEPES pH 7.4, 150 mM NaCl, 2% BSA) was added and plates were stored 2-8° C. until ready to use. A ten-point recombinant human TNF-α standard curve was prepared by a 1:2 serial dilution in “sample diluent” (20 mM HEPES, pH 7.4, 150 mM NaCl, 2 mM MgCl2, 1% BSA) with a top concentration of 6000 pg/mL.
Blocking solution was removed from TNF-α ELISA plates by washing five times with 300 μL of “wash buffer” (20 mM HEPES, pH 7.4, 150 mM NaCl, 2 mM MgCl2, 0.02% Tween-20). 50 μL of “sample diluent” was added to all wells, and then either 50 μL of a TNF-α standard curve solution or test compound supernatant was added to all wells. The plate was incubated at room temperature for one hour with shaking (300 rpm). The plate was washed wash five times with 300 μL “wash buffer”. 100 μL of 0.2 μg/mL biotinylated goat anti-human TNF-α in “antibody diluent” (20 mM HEPES, pH 7.4, 150 mM NaCl, 2 mM MgCl2, 1% BSA, 0.02% Tween-20) was added per well, and the plate was incubated at room temperature for one hour with shaking (300 rpm). The plate was washed wash five times with 300 μL “wash buffer” per well. 100 μL of 0.02 μg/mL streptavidin alkaline phosphatase in “antibody diluent” was added per well, and the plate was incubated at room temperature for one hour with shaking (300 rpm). The plate was washed wash five times with 300 μL wash buffer per well. 200 μL of 1 mg/mL pNPP (p-nitrophenyl phosphate) in diethanolamine buffer with 0.5 mM MgCl2 was added per well, and the plate was incubated for 30 to 45 minutes at room temperature with shaking (300 rpm). […]

Sequence of activated p38α enzyme (Q16539 whole entry, the tested form may be a part): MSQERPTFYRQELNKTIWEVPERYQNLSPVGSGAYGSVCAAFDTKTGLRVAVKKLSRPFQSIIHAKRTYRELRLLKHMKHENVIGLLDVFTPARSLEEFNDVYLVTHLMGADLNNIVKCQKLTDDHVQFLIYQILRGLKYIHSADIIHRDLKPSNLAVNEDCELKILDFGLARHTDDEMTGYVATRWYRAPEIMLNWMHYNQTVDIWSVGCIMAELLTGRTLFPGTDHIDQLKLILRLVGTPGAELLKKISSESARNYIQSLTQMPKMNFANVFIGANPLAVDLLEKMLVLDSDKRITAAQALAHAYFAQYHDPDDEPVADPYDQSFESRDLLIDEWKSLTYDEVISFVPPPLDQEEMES

Row | p38 Inhibition IC50 (nM) [1] | Structure (SMILES) | PBMC IC50 (nM) [2]
1 | active | CC(C)Cn1ncc2cc(C(O)c3ccc(F)cc3F)ccc21 (stereo not drawn) [Compound 4f-1, (2,4-difluorophenyl)-(1-isobutyl-1H-indazol-5-yl)-methanol] | active
2 | active | CC(C)Cn1ncc2cc(C(O)c3ccc(F)cc3)ccc21 (stereo not drawn) [Compound 4f-2, (4-fluorophenyl)-(1-isobutyl-1H-indazol-5-yl)-methanol] | active
3 | active | CC(C)Cn1ncc2cc(C(O)c3ccc(Cl)cc3Cl)ccc21 (stereo not drawn) [Compound 4f-9, (2,4-dichlorophenyl)-(1-isobutyl-1H-indazol-5-yl)-methanol] | inactive
4 | active | CC(C)Cn1ncc2cc(C(=O)c3ccc(F)cc3F)ccc21 [Compound 5f-1, (2,4-difluorophenyl)-(1-isobutyl-1H-indazol-5-yl)-methanone] | active
5 | active | CC(C)Cn1ncc2cc(C(=O)c3ccc(F)cc3)ccc21 [Compound 5f-2, (4-fluorophenyl)-(1-isobutyl-1H-indazol-5-yl)-methanone] | active
6 | active | CC(C)Cn1ncc2cc(C(=O)c3ccc(Cl)cc3F)ccc21 [Compound 5f-7, (4-chloro-2-fluorophenyl)-(1-isobutyl-1H-indazol-5-yl)-methanone] | active
7 | active | CC(C)Cn1ncc2cc(C(=O)c3ccc(Cl)cc3Cl)ccc21 [Compound 5f-9, (2,4-dichlorophenyl)-(1-isobutyl-1H-indazol-5-yl)-methanone] | active
8 | active | Cc1ccccc1C(=O)c1ccc2c(cnn2CC(C)C)c1 [Compound 5f-10, (1-isobutyl-1H-indazol-5-yl)-O-tolyl-methanone] | active
9 | active | CC(C)Cn1ncc2cc(C(=NO)c3ccc(F)cc3F)ccc21 [Compound 7f-1, (2,4-difluorophenyl)-(1-isobutyl-1H-indazol-5-yl)-methanone oxime] | active
10 | active | CC(C)Cn1ncc2cc(C(=NO)c3ccc(F)cc3)ccc21 [Compound 7f-2, (4-fluorophenyl)-(1-isobutyl-1H-indazol-5-yl)-methanone oxime] | active
11 | active | CCON=C(c1ccc2c(cnn2CC(C)C)c1)c1ccc(F)cc1F [Compound 7f-3, (2,4-difluorophenyl)-(1-isobutyl-1H-indazol-5-yl)-methanone O-ethyl-oxime] | active

Row | Structure (SMILES) | p38 Inhibition IC50 (nM) [1] | PBMC IC50 (nM) [2]
12 | CC(C)Cn1ncc2cc(Oc3ccc(F)cc3)c(C(=O)NCCN(C)C)cc21 [Compound 11g-10, 5-(4-fluorophenoxy)-1-isobutyl-1H-indazole-6-carboxylic acid (2-dimethylaminoethyl)-amide] | active | active

— patent publication US7521447B2, “P38 inhibitors and methods of use thereof” (Array Biopharma Inc., priority 2003, dated 2009)
